According to patent US20100267561A1, “HERBICIDAL PYRIDAZINONE DERIVATIVES” (priority 2007, published 2010):

How the values were obtained:
Test in all cases: Test E pre-/postemergence plant response
Type in all cases: in vivo
Settings in all cases: scale 0 to 100
[1] = system: quackgrass (Elytrigia repens)
Procedure, shortened: (§1)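 Pre/post herbicide screen; formulation: non-phytotoxic solvent mix + surfactant. Post timing 1–4 leaves (2–18 cm ht). Greenhouse 14–21 d; visual 0 (none) to 100 (complete control) vs controls.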

[2] = system: purple nutsedge (Cyperus rotundus)
Procedure, shortened: as §1

[3] = system: guineagrass (Panicum maximum)
Procedure, shortened: as §1

[4] = system: black mustard (Brassica nigra)
Procedure, shortened: as §1

[5] = system: southern (S.) sandbur (Cenchrus echinatus)
Procedure, shortened: as §1

[6] = system: common purslane (Portulaca oleracea)
Procedure, shortened: as §1

[7] = system: Italian ryegrass (Lolium multiflorum)
Procedure, shortened: as §1

[8] = system: large crabgrass (Digitaria sanguinalis)
Procedure, shortened: as §1

[9] = system: pitted morningglory (Ipomoea lacunosa)
Procedure, shortened: as §1

[10] = system: goosegrass (Eleusine indica)
Procedure, shortened: as §1

[11] = system: surinam grass (Brachiaria decumbens)
Procedure, shortened: as §1

CCc1cc(-c2ccc(Cl)cc2)nn1-c1c(OC(=O)C(C)(C)C)cnn(C)c1=O [Compound 40]
98: Plant response rating, Sandbur, S. ([5]; 16 g ai/ha, Preemergence) | Plant response rating, Ryegrass, Italian ([7]; 16 g ai/ha, Preemergence) | Plant response rating, Goosegrass ([10]; 16 g ai/ha, Preemergence)
100: Plant response rating, Guineagrass ([3]; 16 g ai/ha, Preemergence) | Plant response rating, Guineagrass ([3]; 31 g ai/ha, Preemergence) | Plant response rating, Guineagrass ([3]; 62 g ai/ha, Preemergence) | Plant response rating, Guineagrass ([3]; Postemergence, 62 g ai/ha) | Plant response rating, Sandbur, S. ([5]; 31 g ai/ha, Preemergence) | Plant response rating, Sandbur, S. ([5]; 62 g ai/ha, Preemergence) | Plant response rating, Sandbur, S. ([5]; Postemergence, 62 g ai/ha) | Plant response rating, Ryegrass, Italian ([7]; 31 g ai/ha, Preemergence) | Plant response rating, Ryegrass, Italian ([7]; 62 g ai/ha, Preemergence) | Plant response rating, Ryegrass, Italian ([7]; Postemergence, 31 g ai/ha) | Plant response rating, Ryegrass, Italian ([7]; Postemergence, 62 g ai/ha) | Plant response rating, Crabgrass, Large ([8]; 31 g ai/ha, Preemergence) | Plant response rating, Crabgrass, Large ([8]; 62 g ai/ha, Preemergence) | Plant response rating, Goosegrass ([10]; 31 g ai/ha, Preemergence) | Plant response rating, Goosegrass ([10]; 62 g ai/ha, Preemergence) | Plant response rating, Surinam Grass ([11]; 16 g ai/ha, Preemergence) | Plant response rating, Surinam Grass ([11]; 31 g ai/ha, Preemergence) | Plant response rating, Surinam Grass ([11]; 62 g ai/ha, Preemergence) | Plant response rating, Surinam Grass ([11]; Postemergence, 31 g ai/ha) | Plant response rating, Surinam Grass ([11]; Postemergence, 62 g ai/ha)
30: Plant response rating, Quackgrass ([1]; Postemergence, 8 g ai/ha)
95: Plant response rating, Quackgrass ([1]; Postemergence, 62 g ai/ha) | Plant response rating, Guineagrass ([3]; Postemergence, 31 g ai/ha) | Plant response rating, Sandbur, S. ([5]; Postemergence, 31 g ai/ha) | Plant response rating, Crabgrass, Large ([8]; Postemergence, 62 g ai/ha) | Plant response rating, Goosegrass ([10]; Postemergence, 62 g ai/ha)
80: Plant response rating, Quackgrass ([1]; 31 g ai/ha, Preemergence) | Plant response rating, Guineagrass ([3]; Postemergence, 8 g ai/ha) | Plant response rating, Goosegrass ([10]; Postemergence, 31 g ai/ha)
90: Plant response rating, Quackgrass ([1]; 62 g ai/ha, Preemergence) | Plant response rating, Guineagrass ([3]; Postemergence, 16 g ai/ha) | Plant response rating, Ryegrass, Italian ([7]; Postemergence, 8 g ai/ha) | Plant response rating, Ryegrass, Italian ([7]; Postemergence, 16 g ai/ha) | Plant response rating, Crabgrass, Large ([8]; Postemergence, 31 g ai/ha) | Plant response rating, Surinam Grass ([11]; Postemergence, 8 g ai/ha) | Plant response rating, Surinam Grass ([11]; Postemergence, 16 g ai/ha)
50: Plant response rating, Quackgrass ([1]; Postemergence, 16 g ai/ha) | Plant response rating, Crabgrass, Large ([8]; 8 g ai/ha, Preemergence)
85: Plant response rating, Sandbur, S. ([5]; Postemergence, 16 g ai/ha) | Plant response rating, Crabgrass, Large ([8]; Postemergence, 16 g ai/ha)
0: Plant response rating, Nutsedge, Purple ([2]; 16 g ai/ha, Preemergence) | Plant response rating, Nutsedge, Purple ([2]; 31 g ai/ha, Preemergence) | Plant response rating, Nutsedge, Purple ([2]; 62 g ai/ha, Preemergence) | Plant response rating, Nutsedge, Purple ([2]; Postemergence, 8 g ai/ha) | Plant response rating, Nutsedge, Purple ([2]; Postemergence, 16 g ai/ha) | Plant response rating, Nutsedge, Purple ([2]; Postemergence, 31 g ai/ha) | Plant response rating, Nutsedge, Purple ([2]; Postemergence, 62 g ai/ha) | Plant response rating, Mustard, Black ([4]; 8 g ai/ha, Preemergence) | Plant response rating, Mustard, Black ([4]; 16 g ai/ha, Preemergence) | Plant response rating, Mustard, Black ([4]; 31 g ai/ha, Preemergence) | Plant response rating, Mustard, Black ([4]; 62 g ai/ha, Preemergence) | Plant response rating, Mustard, Black ([4]; Postemergence, 8 g ai/ha) | Plant response rating, Mustard, Black ([4]; Postemergence, 16 g ai/ha) | Plant response rating, Mustard, Black ([4]; Postemergence, 31 g ai/ha) | Plant response rating, Mustard, Black ([4]; Postemergence, 62 g ai/ha) | Plant response rating, Purslane ([6]; 16 g ai/ha, Preemergence) | Plant response rating, Purslane ([6]; 31 g ai/ha, Preemergence) | Plant response rating, Purslane ([6]; 62 g ai/ha, Preemergence) | Plant response rating, Purslane ([6]; Postemergence, 8 g ai/ha) | Plant response rating, Purslane ([6]; Postemergence, 16 g ai/ha) | Plant response rating, Purslane ([6]; Postemergence, 31 g ai/ha) | Plant response rating, Purslane ([6]; Postemergence, 62 g ai/ha) | Plant response rating, Morningglory ([9]; 16 g ai/ha, Preemergence) | Plant response rating, Morningglory ([9]; 31 g ai/ha, Preemergence) | Plant response rating, Morningglory ([9]; 62 g ai/ha, Preemergence) | Plant response rating, Morningglory ([9]; Postemergence, 8 g ai/ha) | Plant response rating, Morningglory ([9]; Postemergence, 16 g ai/ha) | Plant response rating, Morningglory ([9]; Postemergence, 31 g ai/ha) | Plant response rating, Morningglory ([9]; Postemergence, 62 g ai/ha)
65: Plant response rating, Goosegrass ([10]; Postemergence, 8 g ai/ha) | Plant response rating, Goosegrass ([10]; Postemergence, 16 g ai/ha)
60: Plant response rating, Quackgrass ([1]; 16 g ai/ha, Preemergence)
75: Plant response rating, Sandbur, S. ([5]; Postemergence, 8 g ai/ha) | Plant response rating, Crabgrass, Large ([8]; Postemergence, 8 g ai/ha) | Plant response rating, Goosegrass ([10]; 8 g ai/ha, Preemergence)
70: Plant response rating, Quackgrass ([1]; Postemergence, 31 g ai/ha) | Plant response rating, Crabgrass, Large ([8]; 16 g ai/ha, Preemergence)
